The numbers were not newly measured in patent US20070202158A1, “Methods Of Administering Water-Soluble Prodrugs Of Propofol For Extended Sedation” (MGI GP, Inc., priority 2003, published 2007), which cites them from elsewhere.

The data set has as its system patients. As to conditions: anesthetic induction doses; cited from earlier work.

Regarding `CC(C)c1cccc(C(C)C)c1O` [propofol, 2,6-diisopropylphenol], the “patients with respiratory consequences, including reduction in tidal volume and apnea” value is on record as “up to 83%”.
